The text below walks through data of patent US7923004B2 (priority 2006, dated 2011).

Common to all, as to format: cell-based
Series [1] concerns HCV genotype 1b replicon (Huh-Luc-Neo cells). Description: HCV Replicon RNA (Taqman) Assay, genotype 1b. The note with it: Hepatitis C virus, 72 h, read-out: HCV-1b Replicon Inhibition*, Taqman (EC50). (In antiviral work, replicon cells carry a viral genome segment that copies itself.)
Series [2] is described as follows: Cell Titer-Glo Cell Viability Assay, genotype 1b cells. The note with it: human, Huh-Luc-Neo (HCV genotype 1b replicon) cells, HCV genotype 1b assays, read-out: Cytotoxicity* (CC50). How it is done:
Cell Seeding and Compound Treatment: Huh-Luc-Neo (Genotype 1b) or En5-3/Htat2ANeo (Genotype 1a) cells are seeded at 5000-7000/well in an opaque-walled 96 plate with Growth Medium (DMEM phenol red free+PS+2 mM glutamine; 100 ul/well). The compounds to be tested for inhibition of cell viability are added to the experimental wells so as to generate a dose response curve (8-9 concentrations, 10 μl/well at 10× assay concentration) and the cells are then incubated (5% CO2, 37° C.) for 72 h.
Reagent Preparation and Assay: After completion of the incubation period the cell viability measurements are made using the Cell Titre Glo Assay (Promega) according to the manufacturer's recommended protocol. Briefly, the CellTiter-Glo Buffer is thawed and equilibrated to room temperature prior to use. The lyophilized CellTiter-Glo Substrate is also equilibrated to room temperature prior to use. 10 ml of CellTiter-Glo Buffer is then transferred to 1 vial of CellTiter-Glo Substrate and mixed gently with a Vortex. 100 μl of CellTiter-Glo Assay reagent (CellTiter-Glo Buffer+CellTiter-Glo Substrate Mixture) is added to each well. The well contents are mixed for 5 min. on an orbital shaker at room temperature to induce cell lysis and the luminescence is then measured using a luminometer.
A general note: Cellular ATP, detected with luciferase, serves as a proxy for viable cell number.

For series [3], the system named is HCV genotype 1b replicon (Huh-Luc-Neo cells). Description: HCV Replicon Luciferase Assay. The note with it: Hepatitis C virus, 72 h, read-out: HCV-1b Replicon Inhibition*, Luciferase (EC50).
[4] abbreviates: Huh-Luc-Neo cells, genotype 1b, HCV RNA.

A value given as a limit tells only on which side of the number the result lay.

As a reminder, the EC50 is the concentration that produces a half-maximal response. Usually CC50 stands for the concentration giving 50% cytotoxicity.

As to `CC(C)(C)OC(=O)N[C@@H](C(=O)N1CCCC[C@H]1C(=O)Nc1ccc(C#Cc2c[nH]nc2-c2cc(Cl)ccc2O)cc1)c1ccccc1` [Compound 38], the EC50 in series [1] (setting [4]) is < 1 µM; in series [3] (Huh-Luc-Neo cells, genotype 1b), < 1 µM. For the same compound, the 50% cytotoxic concentration (CC50) at 72 h in series [2] is > 100 µM.
In the case of `CC(C)(C)OC(=O)N[C@@H](C(=O)N1CCCC[C@H]1C(=O)Nc1ccc(C#Cc2cn(CCO)nc2-c2cc(Cl)ccc2O)cc1)c1ccccc1` [Compound 39], the EC50 in series [1] (setting [4]) is < 1 µM; in series [3] (Huh-Luc-Neo cells, genotype 1b) it was < 1 µM. In addition, in series [2], the CC50 at 72 h was in the range of 10 to 100 µM.
For `Cc1ccc(O)c(-c2nn(C)cc2C#Cc2ccc(NC(=O)[C@@H]3CN(C(=O)C(F)(F)F)CCN3C(=O)[C@H](NC(=O)OC(C)(C)C)c3ccccc3)cc2)c1` [Compound 41], the 50% effective concentration (EC50) in series [1] (setting [4]) was < 1 µM; in series [3] (Huh-Luc-Neo cells, genotype 1b), < 1 µM. The CC50 at 72 h in series [2] is > 100 µM.
As to `CN(C(=O)OC(C)(C)C)[C@@H](Cc1ccccc1)C(=O)N1CCCC[C@@H]1C(=O)Nc1ccc(C#Cc2cn(CCO)nc2-c2cc(Cl)ccc2O)cc1` [Compound 42], the half-maximal effective concentration (EC50) in series [1] (setting [4]) was < 1 µM; in series [3] (Huh-Luc-Neo cells, genotype 1b), < 1 µM. Further, the cytotoxic concentration (CC50) at 72 h in series [2] fell in the range of 10 to 100 µM.
Regarding `Cc1ccc(O)c(-c2nn(C)cc2C#Cc2ccc(NC(=O)[C@@H]3CS(=O)(=O)CCN3C(=O)[C@H](NC(=O)OC(C)(C)C)c3ccccc3)cc2)c1` [Compound 45], the EC50 in series [1] (setting [4]) was < 1 µM; in series [3] (Huh-Luc-Neo cells, genotype 1b) it was < 1 µM. For the same compound, the CC50 at 72 h in series [2] was > 100 µM.
Turning to `Cc1ccc(O)c(-c2nn(C)cc2C#Cc2ccc(NC(=O)[C@H]3CS(=O)(=O)CCN3C(=O)[C@H](NC(=O)OC(C)(C)C)c3ccccc3)cc2)c1` [Compound 46 (Table 1)], the EC50 was < 1 µM in series [1] (setting [4]) and < 1 µM in series [3] (Huh-Luc-Neo cells, genotype 1b). The CC50 at 72 h in series [2] is > 100 µM.
As for `Cn1cc(C#Cc2ccc(NC(=O)[C@@H]3COCCN3C(=O)[C@H](NS(=O)(=O)C3CC3)c3ccccc3)cc2)c(-c2cc(Cl)ccc2O)n1` [Compound 55], the EC50 was < 1 µM in series [1] (setting [4]) and < 1 µM in series [3] (Huh-Luc-Neo cells, genotype 1b). Further, the CC50 at 72 h in series [2] was in the range of 10 to 100 µM.
Regarding `Cc1ccc(O)c(-c2nn(C)cc2C#Cc2ccc(NC(=O)C3CCCCN3C(=O)C(c3ccccc3)N(C)C(=O)OC(C)(C)C)cc2)c1` (stereo not drawn) [Compound 56], the 50% effective concentration (EC50) in series [1] (setting [4]) lay in the range of 1 to 10 µM; in series [3] (Huh-Luc-Neo cells, genotype 1b), 1 to 10 µM. Also, the cytotoxic concentration (CC50) at 72 h in series [2] lay within 10 to 100 µM.
`Cc1ccc(OCC(N)=O)c(-c2nn(C)cc2C#Cc2ccc(NC(=O)C3CCCCN3C(=O)[C@H](Cc3ccccc3)NC(=O)OC(C)(C)C)cc2)c1` (stereo partly drawn) [Compound 58]: the EC50 in series [1] was > 100 µM; in series [3], 1 to 10 µM. The CC50 at 72 h in series [2] lay in the range of 10 to 100 µM.
As to `CC(=O)Oc1ccc(C)cc1-c1nn(C)cc1C#Cc1ccc(NC(=O)C2CCCCN2S(=O)(=O)c2cccs2)cc1` (stereo not drawn) [Compound 63], the EC50 in series [1] (setting [4]) is 1 to 10 µM; in series [3] (Huh-Luc-Neo cells, genotype 1b), 1 to 10 µM. In series [2], the cytotoxic concentration (CC50) at 72 h was > 100 µM.
For `Cc1ccc(O)c(-c2nn(C)cc2C#Cc2ccc(NC(=O)[C@@H]3CCCCN3C(=O)[C@@H](NC(=O)OC(C)(C)C)c3ccccc3)cc2)c1` [Example 17], the EC50 in series [1] (setting [4]) was < 1 µM; in series [3] (Huh-Luc-Neo cells, genotype 1b) it was < 1 µM. The CC50 at 72 h in series [2] was > 100 µM.
With `Cc1ccc(O)c(-c2nn(C)cc2C#Cc2ccc(NC(=O)C3CCCCN3C(=O)[C@H](Cc3ccccc3)NC(=O)NC(C)(C)C)cc2)c1` (stereo partly drawn) [Example 18], the half-maximal effective concentration (EC50) in series [1] (setting [4]) is < 1 µM; in series [3] (Huh-Luc-Neo cells, genotype 1b), < 1 µM. For the same compound, the cytotoxic concentration (CC50) at 72 h in series [2] is > 100 µM.
For the compound `Cc1ccc(O)c(-c2nn(C)cc2C#Cc2ccc(NC(=O)C3CCCCN3C(=O)[C@H](Cc3ccccc3)N(C)C(=O)OC(C)(C)C)cc2)c1` (stereo partly drawn) [Example 19], the 50% effective concentration (EC50) in series [1] (setting [4]) was < 1 µM; in series [3] (Huh-Luc-Neo cells, genotype 1b), < 1 µM. Further, the CC50 at 72 h in series [2] was in the range of 10 to 100 µM.
Consider `Cn1cc(C#Cc2ccc(NC(=O)[C@H]3CCCCN3C(=O)C(NC(=O)OC(C)(C)C)c3ccccc3)cc2)c(-c2cc(Br)ccc2O)n1` (stereo partly drawn) [Example 20], for which the 50% effective concentration (EC50) in series [1] (setting [4]) is < 1 µM; in series [3] (Huh-Luc-Neo cells, genotype 1b), < 1 µM. For the same compound, the CC50 at 72 h in series [2] lay in the range of 10 to 100 µM.
